Measured values as given in paper PMC3695784, “2,3-cis-2R,3R-(−)-epiafzelechin-3-O-p-coumarate, a novel flavan-3-ol isolated from Fallopia convolvulus seed, is an estrogen receptor agonist in human cell lines” (BMC Complementary and Alternative Medicine, 2013).

Assays:
SKBR3 cells [1] = test: Control SKBR3 cells with ERE-Luc plasmid but not transfected with ER; type: cell-based, human; conditions: E2 10 nM, 24 h
Method: SKBR3 cells were transfected with 0 .2 µ g ERE-Luc plasmid, 0.05 µ g of either pcDNA3ERα or pcDNA3ERβ, and 0.55 µg pcDNA3.1+. Control SKBR3 cells were transfected with 0.2 µ g ERE-Luc plasmid and 0.6 µ g pcDNA3.1+. Cells were treated for 24 h, lysed, and luciferase activity assessed. Luciferaseexpression was normalized using the Bradford assay.

ERα or ERβ [2] = conditions: E2 standard set as 100%; cited from earlier work
ERα or ERβ [3] = conditions: greater in ERβ; cited from earlier work
human ERβ = molecular target: T1, human ERβ (Homo sapiens, UniProt Q92731); test: SKBR3 cells transiently transfected with ERβ and ER-responsive luciferase reporter; type: cell-based; conditions: for maximum luciferase induction, percent of maximum E2 activity: ERβ-transfected SKBR3, 10 nM E2 = 100%, normalized to protein
T1 construct: human ERβ segment (530 aa, GenBank: AF051427.1); expressed in transfected cells; host or cells: SKBR3 (human breast carcinoma), transient transfection with ERβ/pcDNA3
Text: (§1) The human ERβ expression plasmid (ERβ/pcDNA3) was constructed by PCR amplification of the human ERβ segment (530 aa, GenBank: AF051427.1) out of pCMV5 (kindly provided by Dr. John Katzenellenbogen, University of Illinois) and insertion of this fragment at BstEII and AflII restriction sites into the modified pcDNA3 construct, which was previously described. […] The human ERα expression plasmid, pcDNA3.1 + ERα, was purchased from Missouri S&T cDNA Resouce Center and was confirmed by restriction digestion. […] The generated plasmids were verified by DNA sequencing. Plasmids ERβ/pcDNA3 and ERα/pcDNA3were used as templates for in vitro expression (Additional file 2); ERα and ERβ were synthesized in vitro using the TNT Quick coupled transcription/translation rabbit reticulocyte lysate system (Promega). Briefly, ^35S-Radiolabeled hERα and hERβ were synthesized in separate reactions in vitro according to manufacturer’s protocol, denatured, and subjected to SDS-polyacrylamide gel electrophoresis, and the kDa of each protein was determined by autoradiography of the dried gel.
(§2) Protein concentration was determined using the Bradford assay.
(§3) Luciferase activity was expressed as relative light units (RLU) for assays using BG1Luc4E2 cells or as a ratio of luciferase RLU/mg protein for assays using SKBR3 cells. Protein amount (mg) was calculated from concentrations obtained in Bradford assay and the respective luciferase RLU was divided by mg protein to obtain luciferase RLU/mg protein. Average luciferase RLU (or luciferase RLU/mg protein) values were calculated from triplicate wells. Solvent luciferase RLU (or luciferase RLU/mg) was subtracted from luciferase RLU induced by chemical. In the case of extract and fractions, luciferase RLU induced by method blank was subtracted from luciferase RLU induced by extract or fraction. […] The Student’s t-test (2-tailed, paired) was used to establish significant difference of chemical/fraction/extract activity from that of solvent or method blank (p ≤ 0.05), and dose–response curves were fitted using a sigmoidal Hill’s 4-parameter algorithm (SigmaPlot v.9.0, Systat, San Jose, CA), as described previously. Half-maximal inductions of each treatment (EC50) were determined as described in [34].

SKBR3 cells [4] = test: Toxicity observed in transfected SKBR3 cells (protein concentration, RLU, cell death)
Method: SKBR3 cells were grown and maintained in high-glucose DMEM and 10% premium FBS. SKBR3 cells were cultured in phenol red-free medium supplemented with 10% charcoal-stripped FBS for 48 h before transfection and seeded in 24-well plates at a density of 300,000 cells/mL. 24 h after plating, cells were transfected for 24 h using Lipofectamine reagent (2 μL/well) according to the manufacturer’s recommendations (0.2 μg of ER-responsive reporter plasmid pGudLuc7ere [32] and 0.05 μg receptor plasmids (ERα/pcDNA3 or ERβ/pcDNA3) or empty vector (pcDNA3.1+) per well, normalizing μg DNA/well to 0.8 μg/well with empty vector). 24 h post-transfection, SKBR3 cells were incubated for 24 h with chemical, the cells harvested, and both protein concentration and luciferase activity determined. Protein concentration was determined using the Bradford assay [35]. Briefly, 5 μL/well SKBR3 lysate was incubated for 5 min at room temperature with 1X Bradford Reagent (200 μL). Protein concentration was calibrated against a standard curve of bovine serum albumin (0.05-0.5 mg/mL) on the same plate and was measured as mg protein/mL using a PhosphorImager (Molecular Dynamics).

human ERα = human ERα (Homo sapiens, UniProt P03372); test: SKBR3 cells transiently transfected with ERα and ER-responsive luciferase reporter; type: cell-based
Text: as §1, §2
Luciferase activity was expressed as relative light units (RLU) for assays using BG1Luc4E2 cells or as a ratio of luciferase RLU/mg protein for assays using SKBR3 cells. Protein amount (mg) was calculated from concentrations obtained in Bradford assay and the respective luciferase RLU was divided by mg protein to obtain luciferase RLU/mg protein. Average luciferase RLU (or luciferase RLU/mg protein) values were calculated from triplicate wells. Solvent luciferase RLU (or luciferase RLU/mg) was subtracted from luciferase RLU induced by chemical. In the case of extract and fractions, luciferase RLU induced by method blank was subtracted from luciferase RLU induced by extract or fraction. […] Half-maximal inductions of each treatment (EC50) were determined as described in [34].

BG1Luc4E2 cells = test: Cell death/toxicity observed in BG1Luc4E2 bioassay; type: cell-based, human
Method: Method blank treatments were included if applicable. […] Protein concentration was determined using the Bradford assay.

estrogen receptor = molecular target: T2, estrogen receptor (Homo sapiens, UniProt P03372); test: BG1Luc4E2 stably transfected estrogen-responsive luciferase reporter bioassay; type: cell-based
T2 construct: the BG1Luc4E2 cell line endogenously expresses ERα; endogenous in cells; host or cells: BG1Luc4E2 (human ovarian carcinoma, stably transfected ERE-luciferase reporter)
Method: as §2, §3

Chain of human ERα (P03372 311-547): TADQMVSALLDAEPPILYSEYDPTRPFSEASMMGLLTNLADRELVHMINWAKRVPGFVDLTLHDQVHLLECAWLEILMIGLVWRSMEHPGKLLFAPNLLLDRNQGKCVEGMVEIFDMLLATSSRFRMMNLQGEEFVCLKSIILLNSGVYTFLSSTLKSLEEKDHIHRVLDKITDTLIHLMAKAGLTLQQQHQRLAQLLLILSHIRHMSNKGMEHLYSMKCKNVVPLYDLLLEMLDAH
T1 sequence (Q92731 whole entry): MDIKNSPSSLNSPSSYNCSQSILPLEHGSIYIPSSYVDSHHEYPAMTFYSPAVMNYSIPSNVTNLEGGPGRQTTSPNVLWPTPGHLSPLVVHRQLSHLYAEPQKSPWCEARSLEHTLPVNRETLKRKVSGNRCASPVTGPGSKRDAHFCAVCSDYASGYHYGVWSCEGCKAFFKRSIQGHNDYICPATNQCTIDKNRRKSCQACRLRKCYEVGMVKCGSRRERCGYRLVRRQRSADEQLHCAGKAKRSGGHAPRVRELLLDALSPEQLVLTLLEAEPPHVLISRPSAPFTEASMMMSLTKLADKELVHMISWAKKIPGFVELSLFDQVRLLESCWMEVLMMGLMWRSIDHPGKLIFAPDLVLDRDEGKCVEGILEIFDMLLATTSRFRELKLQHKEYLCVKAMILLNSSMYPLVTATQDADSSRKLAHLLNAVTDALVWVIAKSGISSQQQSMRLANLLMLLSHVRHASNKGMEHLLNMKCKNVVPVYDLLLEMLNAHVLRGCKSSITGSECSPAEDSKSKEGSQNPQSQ
T2 sequence (P03372 whole entry): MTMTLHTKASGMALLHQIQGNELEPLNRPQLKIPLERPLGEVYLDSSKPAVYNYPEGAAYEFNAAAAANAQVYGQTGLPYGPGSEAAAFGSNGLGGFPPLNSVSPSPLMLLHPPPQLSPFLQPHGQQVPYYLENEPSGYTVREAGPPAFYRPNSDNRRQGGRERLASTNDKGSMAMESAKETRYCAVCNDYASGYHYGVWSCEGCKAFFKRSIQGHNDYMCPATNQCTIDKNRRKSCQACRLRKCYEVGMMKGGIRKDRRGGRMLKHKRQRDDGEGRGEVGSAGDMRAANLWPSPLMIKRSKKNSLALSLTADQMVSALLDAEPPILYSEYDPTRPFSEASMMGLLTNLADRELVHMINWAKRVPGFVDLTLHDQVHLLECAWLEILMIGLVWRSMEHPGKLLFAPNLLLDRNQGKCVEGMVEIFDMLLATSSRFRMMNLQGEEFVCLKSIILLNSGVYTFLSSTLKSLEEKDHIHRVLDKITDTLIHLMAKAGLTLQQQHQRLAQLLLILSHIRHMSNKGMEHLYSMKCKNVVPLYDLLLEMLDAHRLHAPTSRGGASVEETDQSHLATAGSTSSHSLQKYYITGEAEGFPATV

## C[C@]12CC[C@@H]3c4ccc(O)cc4CC[C@H]3[C@@H]1CC[C@@H]2O [E2, 17-β-estradiol]
SKBR3 cells [1]
  luciferase expression in cells not transfected with ER: do not express luciferase

## COc1ccc(-c2coc3cc(O)cc(O)c3c2=O)cc1 [biochanin A]
ERα or ERβ [2]
  relative binding affinity, ERβ versus ERα: greater to ERβ than to ERα

## O=c1oc2cc(O)ccc2c2oc3cc(O)ccc3c12 [coumestrol]
ERα or ERβ [2]
  relative binding affinity, ERβ versus ERα: greater to ERβ than to ERα

## O=c1c(-c2ccc(O)cc2)coc2cc(O)ccc12 [diadzein]
ERα or ERβ [2]
  relative binding affinity, ERβ versus ERα: greater to ERβ than to ERα

## Cc1cc(O)c2c(c1)C(=O)c1cc(O)cc(O)c1C2=O [emodin, reference compound]
ERα or ERβ [3]
  REP in ERβ-transfected versus ERα-transfected yeast cells: approximately one order of magnitude
Human ERβ
  maximum luciferase induction, percent of maximum E2 activity: 127 ± 26%
Human ERβ; SKBR3 (ERβ), luciferase, 24 h, read-out: EC50 (concentration for half-maximal induction)
  EC50: 3 µM
SKBR3 cells [4]
  concentrations toxic to SKBR3 cells: greater than 10 μM

## O=c1c(-c2ccc(O)cc2)coc2cc(O)cc(O)c12 [genistein, reference compound]
SKBR3 cells [4]
  concentrations resulting in significantly decreased RLU: greater than 10 μM

## O=C(C=Cc1ccc(O)cc1)OC1Cc2c(O)cc(O)cc2OC1c1ccc(O)cc1 [rhodoeosein, 2,3-cis-(2R,3R)-(−)-epiafzelechin-3-O-p-coumarate]
Human ERβ
  maximum luciferase induction, percent of maximum E2 activity: 80 ± 10%
Human ERβ; SKBR3 (ERβ)
  REP (relative estrogenic potency = EC50 E2/EC50 chemical): 1.5 × 10^-5
Human ERα; ERα-transfected SKBR3, 10 nM E2 = 100%, normalized to protein
  maximum luciferase induction, percent of maximum E2 activity: 78 ± 8%
Human ERα; SKBR3 (ERα)
  REP (relative estrogenic potency = EC50 E2/EC50 chemical): 3.4 × 10^-6
Human ERα; SKBR3 (ERα), luciferase, 24 h, read-out: EC50 (concentration for half-maximal induction)
  EC50: 5.8 µM
SKBR3 cells [4]
  concentrations resulting in significantly decreased protein concentration: greater than 100 μM
  effect on cells at 0.316 mM: caused cell death
BG1Luc4E2 cells; 24 h incubation
  concentrations that killed BG1Luc4E2 cells: ≥ 250 µM
BG1Luc4E2 cells; BG1Luc4E2 cells
  effect on cells at 0.25, 0.316, and 1 mM: caused cell death
BG1Luc4E2 cells; BG1Luc4E2 cells, 197 μM
  toxicity at 197 μM: no toxicity
Estrogen receptor; BG1Luc4E2 (ovarian), luciferase, 24 h, read-out: EC50 (concentration for half-maximal induction)
  EC50: 120 µM
Estrogen receptor; BG1Luc4E2 cells
  concentrations resulting in no luciferase induction: below 31.6 μM
  orders of magnitude weaker in potency than the E2 standard: approximately 7 orders of magnitude
Estrogen receptor; BG1Luc4E2 cells, 1 nM E2 = 100%, 24 h
  maximum luciferase induction, percent of maximum E2 activity: > 400%
Estrogen receptor; BG1Luc4E2 cells, 119 μM and 158 μM, superinduction
  luciferase induction, percent of maximum E2 activity: > 400%
